Measurements as given in article PMC11984877, “Carnosic Acid Directly Targets STING C‐Terminal Tail to Improve STING‐Mediated Inflammatory Diseases” (Advanced Science, 2025).

Tests used:
[1] = molecular target: T1, STING (stimulator of interferon genes) (Homo sapiens, UniProt Q86WV6); experiment: SPR (Biacore T200); also carnosol-sepharose pull-down; assay type: binding; design: gene STING1; purified human STING protein (TP308418, OriGene)
[2] = molecular target: T1, STING (stimulator of interferon genes); experiment: SPR (Biacore T200); also MST (KD […]) and CA-sepharose pull-down competed by free CA; assay type: binding; design: gene STING1; purified soluble human STING protein (TP308418, OriGene)

T1 sequence (Q86WV6 whole entry): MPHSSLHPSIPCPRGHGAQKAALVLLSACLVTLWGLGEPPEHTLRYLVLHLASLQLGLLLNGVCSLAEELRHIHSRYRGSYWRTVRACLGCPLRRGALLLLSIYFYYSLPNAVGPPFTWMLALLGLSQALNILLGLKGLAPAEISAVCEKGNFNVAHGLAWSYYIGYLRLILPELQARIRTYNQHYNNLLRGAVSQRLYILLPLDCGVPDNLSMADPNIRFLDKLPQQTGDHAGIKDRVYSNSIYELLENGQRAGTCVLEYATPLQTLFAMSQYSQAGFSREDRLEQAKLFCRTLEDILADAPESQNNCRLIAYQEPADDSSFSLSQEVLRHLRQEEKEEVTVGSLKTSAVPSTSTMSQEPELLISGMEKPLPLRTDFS

Compound | Kd [1] [µM] | Kd [2] [µM]
CC(C)c1cc2c(c(O)c1O)[C@@]13CCCC(C)(C)[C@@H]1C[C@@H]2OC3=O [carnosol] | 1.07 | –
CC(C)c1cc2c(c(O)c1O)[C@@]1(C(=O)O)CCCC(C)(C)[C@@H]1CC2 [CA, carnosic acid] | – | 3.17
